The source of these data is DBAASP.

Converted amounts (≈) assume the structure as drawn. “And” between values parts separate entries of the source, which are not always exact repeats. Equal entries are not always repeated.

Among the test systems are Escherichia coli C600; Enterococcus faecium; Staphylococcus aureus.
Common to all, as to assay: ≥ marks a high value that may be exact or a test limit, other limits are often not marked, values filed in µg/mL are converted to µM
Assay [1] concerns Aspergillus flavus KCTC 6905.
In assay [2] the test system is Candida albicans CCARM 14001.
The test system of assay [3] is Candida albicans CCARM 14004.
In assay [4] the test system is Candida albicans CCARM 14007.
The subject of assay [5] is Candida albicans CCARM 14020.
For assay [6], the system named is Candida albicans KCTC 7270.
Assay [7] deals with Candida krusei CCARM 14017.
The test system of assay [8] is Candida parapsilosis CCARM 14016.
The test system of assay [9] is Colletotrichum gloeosporioides KCTC 6169.
For assay [10], the system named is Fusarium graminearum KCTC 16656.
The test system of assay [11] is Fusarium oxysporum KCTC 16909.
Assay [12] deals with Fusarium solani KCTC 6326.
For assay [13], the system named is Fusarium verticillioides KCTC 6149.
For assay [14], the system named is Trichoderma virens KCTC 16924.
In assay [15] the test system is Trichoderma viride KCTC 16992.
For assay [16], the system named is Trichophyton rubrum KCTC 6345.
In assay [17] the test system is Candida albicans NCYC 1467.
Assay [18] has as its system Escherichia coli NCTC 10418.
In assay [19] the test system is Pseudomonas aeruginosa ATCC 27853.
Assay [20] deals with Staphylococcus aureus ATCC 12493.
Assay [21] relates to Staphylococcus aureus NCTC 10788.
Assay [22] relates to Escherichia coli ATCC 25922.
Assay [23] deals with Escherichia coli KpC+001812446.
Assay [24] deals with Klebsiella pneumoniae ATCC 13883.
The subject of assay [25] is Klebsiella pneumoniae KpC+001825971.
Assay [26] deals with Staphylococcus aureus ATCC 25923.
Assay [27] concerns Pseudomonas aeruginosa PAO1.
Assay [28] has as its system Staphylococcus aureus 209P.
Assay [29] concerns Escherichia coli BL21(DE3).
Assay [30] relates to Bacillus subtilis KCTC 3068.
For assay [31], the system named is Escherichia coli KCTC 1682.
Assay [32] has as its system Pseudomonas aeruginosa KCTC 1637.
For assay [33], the system named is Salmonella typhimurium KCTC 1926.
Assay [34] concerns Staphylococcus aureus KCTC 1621.
The subject of assay [35] is Staphylococcus epidermidis KCTC 1917.

Broadly, the MIC is the lowest concentration that inhibits growth of the organism. A higher MIC goes with weaker potency. `NCCCC[C@H](NC(=O)[C@H](CCCCN)NC(=O)[C@H](Cc1cnc[nH]1)NC(=O)[C@H](CCCCN)NC(=O)[C@H](CCCCN)NC(=O)[C@H](Cc1cnc[nH]1)NC(=O)[C@H](CCCCN)NC(=O)[C@H](CCCCN)NC(=O)[C@H](Cc1cnc[nH]1)NC(=O)[C@H](CCCCN)NC(=O)[C@H](CCCCN)NC(=O)[C@@H](N)Cc1cnc[nH]1)C(N)=O` [HKKHKKHKKHKK]: the MIC in [1] is 8 µM (≈ 12.7 µg/mL); in assay [2] it was ≥ 32 µM; in assay [3] it was ≥ 32 µM; in assay [4], ≥ 32 µM; in [5], ≥ 32 µM; in [6], ≥ 32 µM. For the same compound, the MIC in assay [7] is 4 µM (≈ 6.36 µg/mL); in assay [8], ≥ 32 µM; in [9], 2 µM (≈ 3.18 µg/mL); in assay [10], 16 µM (≈ 25.5 µg/mL); in assay [11] it was 4 µM (≈ 6.36 µg/mL); in [12], 4 µM (≈ 6.36 µg/mL). Moreover, the MIC in assay [13] stood at 4 µM (≈ 6.36 µg/mL); in assay [14] it was 16 µM (≈ 25.5 µg/mL); in [15], 4 µM (≈ 6.36 µg/mL); in assay [16], 16 µM (≈ 25.5 µg/mL).
`CC[C@H](C)[C@@H]1NC(=O)[C@H](CO)NC(=O)[C@H](CCCCN)NC(=O)[C@H]([C@@H](C)O)NC(=O)[C@H](Cc2c[nH]c3ccccc23)NC(=O)[C@@H](NC(=O)CNC(=O)[C@H](CCCN=C(N)N)NC(=O)[C@H](CC(C)C)NC(=O)[C@H](C)N)CSSC[C@@H](C(=O)N2CCC[C@H]2C(N)=O)NC(=O)[C@@H]2CCCN2C(=O)[C@H](CCCCN)NC(=O)[C@@H]2CCCN2C(=O)[C@@H]2CCCN2C1=O` [ALRGCWTKSIPPKPCP]: the MIC was ≥ 512 µM in assay [17]; ≥ 128 µM in [18]; > 512 µM in assay [19]; ≥ 512 µM in assay [20]; ≥ 128 µM in [21].
`CC[C@H](C)[C@H](NC(=O)[C@H](CCCCN)NC(=O)[C@H](CCCCN)NC(=O)[C@H](CC(C)C)NC(=O)[C@H](CO)NC(=O)CNC(=O)[C@H](CO)NC(=O)CNC(=O)[C@H](CO)NC(=O)CNC(=O)[C@H](CO)NC(=O)CN)C(=O)N[C@@H](Cc1ccccc1)C(=O)N[C@@H](CCCCN)C(=O)N[C@@H](CCCCN)C(=O)N1CCC[C@H]1C(=O)N[C@@H](CCSC)C(=O)N[C@H](C(=O)N[C@H](C(=O)NCC(=O)N[C@H](C(=O)N[C@H](C(=O)N[C@H](C(=O)N1CCC[C@H]1C(=O)N[C@@H](Cc1ccccc1)C(N)=O)[C@@H](C)CC)[C@@H](C)O)C(C)C)[C@@H](C)CC)C(C)C` [GSGSGSGSLKKIFKKPMVIGVTIPF]: the MIC in assay [22] amounted to 0.789 µM (≈ 2 µg/mL); in assay [23], 0.789 µM (≈ 2 µg/mL); in assay [24], 0.789 µM (≈ 2 µg/mL); in [25] it was 6.31 µM (≈ 16 µg/mL); in assay [26], 25.2 µM (≈ 64 µg/mL).
Consider `CC(C)[C@@H]1NC(=O)[C@H](CCCN=C(N)N)NC(=O)[C@H](Cc2ccccc2)NC(=O)[C@@H](NC(=O)[C@H](Cc2c[nH]c3ccccc23)NC(=O)[C@@H](N)CCCCN)CSSC[C@@H](C(=O)N[C@@H](CCCN=C(N)N)C(=O)O)NC(=O)[C@H](CCCN=C(N)N)NC(=O)[C@H](CCCN=C(N)N)NC(=O)[C@H](Cc2ccc(O)cc2)NC(=O)[C@@H]2CSSC[C@H](NC1=O)C(=O)N[C@@H](Cc1ccc(O)cc1)C(=O)N[C@@H](CCCN=C(N)N)C(=O)NCC(=O)N[C@@H](CCCN=C(N)N)C(=O)N2` [KWCFRVCYRGRCYRRCR], for which the MIC in the assay with Escherichia coli C600 worked out at 1.56 µM (≈ 3.6 µg/mL); in [27], 6.25 µM (≈ 14.4 µg/mL); in [28] it was 1.56 µM (≈ 3.6 µg/mL).
Consider `NCCCC[C@H](NC(=O)[C@H](CCCCN)NC(=O)[C@@H](N)Cc1cnc[nH]1)C(N)=O` [HKK], for which the MIC in assay [1] was ≥ 256 µM; in [2] it was ≥ 1020 µM; in [3], ≥ 1020 µM; in assay [4] it was ≥ 1020 µM; in assay [5] it was ≥ 1020 µM; in assay [6], ≥ 1020 µM. In addition, the MIC in assay [7] is ≥ 512 µM; in assay [8], ≥ 1020 µM; in assay [9], ≥ 1020 µM; in [10], ≥ 512 µM; in assay [11] it was ≥ 256 µM; in [12] it was ≥ 256 µM. In addition, the MIC in assay [13] was ≥ 256 µM; in [14] it was ≥ 512 µM; in assay [15] it was ≥ 256 µM; in assay [16] it was ≥ 512 µM.
In the case of `CC[C@H](C)[C@H](NC(=O)[C@H](CC(C)C)NC(=O)[C@H](CCCN=C(N)N)NC(=O)[C@@H](N)CCCN=C(N)N)C(=O)N[C@@H](CCCN=C(N)N)C(=O)N[C@@H](CC(C)C)C(=O)N[C@@H](Cc1c[nH]c2ccccc12)C(=O)N[C@@H](CC(C)C)C(=O)N[C@@H](CCCN=C(N)N)C(=O)N[C@@H](CC(C)C)C(=O)N[C@@H](CC(C)C)C(=O)N[C@@H](CCCN=C(N)N)C(N)=O` [RRLIRLWLRLLR], the MIC in assay [29] is 8 µM and 4 µM; in assay [24] it was 4 µM (≈ 6.65 µg/mL).
Turning to `NCCCC[C@H](NC(=O)[C@H](CCCCN)NC(=O)[C@H](Cc1ccccc1)NC(=O)[C@@H]1CCCN1C(=O)[C@H](Cc1c[nH]c2ccccc12)NC(=O)[C@H](Cc1c[nH]c2ccccc12)NC(=O)[C@H](Cc1c[nH]c2ccccc12)NC(=O)[C@@H]1CCCN1C(=O)[C@H](Cc1ccccc1)NC(=O)[C@H](CCCCN)NC(=O)[C@@H](N)CCCCN)C(=O)O` [KKFPWWWPFKK], the MIC came to 1.27 µM (≈ 2 µg/mL) in assay [30]; 5.07 µM (≈ 8 µg/mL) in the assay with Enterococcus faecium; 5.07 µM (≈ 8 µg/mL) in assay [31]; 5.07 µM (≈ 8 µg/mL) in assay [32]; 5.07 µM (≈ 8 µg/mL) in assay [33]; 2.54 µM (≈ 4 µg/mL) in [34]. In addition, the MIC was found to be 3.58 µM (≈ 5.66 µg/mL) with Staphylococcus aureus and 0.634 µM (≈ 1 µg/mL) in assay [35].
